Read-outs that look alike come from different tables or passages of the source. Where a SMILES comes first, the peptide text is derived from it. [ ]: non-standard residue; d: D form. The star is where a group is joined. Dolaproine = CO[C@@H]([C@@H]1CCCN1)[C@@H](C)C(=O)O; Dil = CC[C@H](C)[C@H](NC)[C@@H](CC(=O)O)OC; X1 = C[C@@H](N*)[C@@H](O)c1ccccc1; NMeV = CN[C@H](C(=O)O)C(C)C
Assays:
HCT15 cells = assay: MDR cell based killing assay, HCT15 cells with or without Verapamil (CellTiter-Glo); design: species or system human; conditions: for IC50: Homo sapiens; for HCT-15 with verapamil Ratio to Xa = H / HCT-15 Ratio to Xa = H: IC50 ratio to parent payload with Xa = H; for HCT-15 Ratio to Xa = H: without verapamil
How it was run: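 CellTiter-Glo luminescence after 5-day exposure gave viability of 1000 HCT15 cells per well, grown in RPMI/10% FBS ± 5 ug/mL Verapamil. Payload tested from 100 nM down to 15 pM in threefold steps; four-parameter logistic IC50 in molar; MDR shift expressed as −Verapamil/+Verapamil IC50 ratio.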

[1] = system: SK-BR-3 human breast adenocarcinoma cell line; assay: SK-BR-3 anti-proliferation / cell kill assay (CellTiter-Glo, 144 hrs); assay type: cell-based; conditions: for IC50: Homo sapiens, SK-BR-3, read-out: SK-BR-3 IC50; for SK-BR-3 Ratio to Xa = H: IC50 ratio to parent payload with Xa = H
Experimental: Anti-proliferation assays were performed using a SK-BR-3 human breast adenocarcinoma (pleural effusion) cell line. The cells were grown in McCoy's 5a Medium supplemented with 10% FBS, penicillin/streptomycin and L-glutamine. Cells were seeded 1000/well in 96-well plate in 80ul complete growth media one day prior to adding ADCs and incubated at 37° C. 5% CO2 overnight.
The ADCs were 1:3 serially diluted 10 points in assay media (Opti-MEM+0.1% BSA). The concentrations of the testing ADCs cover the range of 1 nM to ˜1000 nM and also starting from different concentrations based on the cell killing potency in order to see EC50 covers, leaving the last well (10th) as blank (no ADC or compound). ADCs were first 1:3 serially diluted 10 points in DMSO starting from […] (the starting concentration of each ADC is different according to the EC50s), leaving the last well as blank (containing only DMSO). 10 μl DMSO-diluted compound was transferred to 990 μl assay media (Opti-MEM+0.1% BSA) in a 96-well deep well dilution plate. 20 μl assay media-diluted ADC was added to cells. Cells were incubated at 37° C. […] for 6 days (144 hrs). Plates were developed by adding 100 μl CTG reagent/well to the cells CellTiter-Glo®, from Promega, Cat. No G7573), shaken at room temperature for 10 min, sealed with white adhesive bottom seal and luminescence was read with Envision. Cell kill %=[1−(T144sample−T144blank)/(T144DMSO−T144blank)]×100%, wherein T144 is the data at 144 hours.
The table below provides the drug-antibody ratios (DARs) for conjugates 1-37, along with the EC50 results from the SKBR assays for the same conjugates. The following linker-payloads (from Table P1) were prepared as described in PCT/US2019/068185, the content of which is hereby incorporated by reference in its entirety: LP4-Ve, LP4-Ve, LP25-Ve, LP25-Ve, LP26-Ve, LP26-Ve, LP17-Ve, LP13-Ve, LP19-Ve, LP2-Ve, LP21-Ve, LP6-Vb, LP24-Vb, LP23-Vb, and LP15-VIh.

C4-2 cells [2] = assay: Cell-based killing assay of payloads, C4-2 cells (CellTiter-Glo); design: species or system human
Experimental: (§1) To test the ability of the disclosed tubulysin payloads or prodrug payloads to kill human cell lines, an in vitro cytotoxicity assay can be performed. In vitro cytotoxicity of the disclosed payloads, as well as reference compounds, are evaluated using the CellTiter-Glo Assay Kit (Promega, Cat # G7573), in which the quantity of ATP present is used to determine the number of viable cells in culture. For the assay, C4-2, HEK293, or T47D cells are seeded at 4000 cells/well on Nunclon white 96-well plates in complete growth medium (DME high glucose:Ham's F12 at 4:1, 10% FBS, 100 units/ml Penicillin, 100 ug/ml streptomycin, 53 ug/ml glutatmine, 10 ug/ml insulin, 220 ng/ml biotin, 12.5 pg/ml T3, 12.5 ug/ml Adenine, 4 ug/ml transferrin for C42 cells; DME high glucose, 10% FBS, 100 units/ml Penicillin, 100 ug/ml streptomycin, 53 ug/ml glutatmine for HEK293; RPMI, 10% FBS, 100 units/ml Penicillin, 100 ug/ml streptomycin, 53 ug/ml glutatmine, 10 ug/ml insulin, 10 mM HEPEs, 200 nM Sodium Pyruvate for T47D cells) and grown overnight at 37° C. in 5% CO2. […] Relative luminescence units (RLU) can be determined on a Victor plate reader (PerkinElmer). The IC50 values are determined from a four-parameter logistic equation over a 10-point response curve (GraphPad Prism). […]

C4-2 cells [3] = assay: ADC cell based killing assay, C4-2 cells (anti-STEAP2 ADCs); design: species or system human
Experimental: as §1

[4] = HCT-15, read-out: HCT-15 with verapamil IC50
[5] = at the maximum concentration tested

Compound	IC50 (HCT15 cells; HCT-15, read-out: HCT-15 IC50)	IC50 (HCT15 cells; [4])	HCT-15 with verapamil Ratio to Xa = H (HCT15 cells)	HCT-15 Ratio to Xa = H (HCT15 cells)	IC50 [1]	SK-BR-3 Ratio to Xa = H [1]	HCT-15 IC50/HCT-15+Verapamil IC50 ratio (HCT15 cells; IC50 without Verapamil divided by IC50 with Verapamil)	IC50 (C4-2 cells [2]; 5-day incubation)	maximum % cell killing, C4-2 cells (C4-2 cells [2]; [5])	IC50 (C4-2 cells [3]; ADCs and reference payload)	maximum percent killing, C4-2 cells (C4-2 cells [3]; [5])
CCCCCCN(C(=O)[C@@H](NC(=O)[C@H]1CCCCN1C)[C@@H](C)CC)[C@H](C[C@@H](OC(C)=O)c1nc(C(=O)N[C@@H](Cc2ccc(NC(=O)CN)c(F)c2)CC(C)(C)C(=O)O)cs1)C(C)C [Compound P25, (4S)-4-({2-[(1R,3R)-1-(acetyloxy)-3-[(2S,3S)—N-hexyl-3-methyl-2-{[(2R)-1-methylpiperidin-2-yl]formamido}pentanamido]-4-methylpentyl]-1,3-thiazol-4-yl}formamido)-5-[4-(2-aminoacetamido)-3-fluorophenyl]-2,2-dimethylpentanoic Acid]	0.08 nM	0.04 nM	4.0x	4.0x	0.03 nM	1.9x					
CCCCCCN(C(=O)[C@@H](NC(=O)[C@H]1CCCCN1C)[C@@H](C)CC)[C@H](C[C@@H](OCC)c1nc(C(=O)N[C@@H](Cc2ccc(NC(=O)CN)cc2)CC(C)(C)C(=O)O)cs1)C(C)C [Compound P31, (4S)-5-[4-(2-aminoacetamido)phenyl]-4-({2-[(1R,3R)-1-ethoxy-3-[(2S,3S)—N-hexyl-3-methyl-2-{[(2R)-1-methylpiperidin-2-yl]formamido}pentanamido]-4-methylpentyl]-1,3-thiazol-4-yl}formamido)-2,2-dimethylpentanoic Acid]	0.81 nM	0.29 nM	4.3x	9.7x	0.07 nM	2.4x					
CCCCCCN(C(=O)[C@@H](NC(=O)[C@H]1CCCCN1)[C@@H](C)CC)[C@H](C[C@@H](OCC)c1nc(C(=O)N[C@@H](Cc2ccc(NC(=O)CN)cc2)CC(C)(C)C(=O)O)cs1)C(C)C [Compound P32, (4S)-5-[4-(2-aminoacetamido)phenyl]-4-({2-[(1R,3R)-1-ethoxy-3-[(2S,3S)—N-hexyl-3-methyl-2-[(2R)-piperidin-2-ylformamido]pentanamido]-4-methylpentyl]-1,3-thiazol-4-yl}formamido)-2,2-dimethylpentanoic Acid]	> 100 nM	> 100 nM			> 1 nM						
CC[C@H](C)[C@@H]([C@@H](CC(=O)N1CCC[C@H]1[C@H](OC)[C@@H](C)C(=O)N[C@H](C)[C@@H](O)c1ccccc1)OC)N(C)C(=O)[C@@H](NC(=O)[C@@H](NC)C(C)C)C(C)C [MMAE, Monomethyl auristatin E] (H-[NMeV]V[Dil][Dolaproine]-X1)							23.7	0.283 nM	93.7%	0.22 nM	99%
CCCCCCN(C(=O)[C@@H](NC(=O)[C@H]1CCCCN1C)[C@@H](C)CC)[C@H](C[C@@H](OC(C)=O)c1nc(C(=O)N[C@@H](Cc2ccc(NCCN)cc2)CC(C)(C)C(=O)O)cs1)C(C)C [Compound P30, (4S)-4-({2-[(1R,3R)-1-(acetyloxy)-3-[(2S,3S)—N-hexyl-3-methyl-2-{[(2R)-1-methylpiperidin-2-yl]formamido}pentanamido]-4-methylpentyl]-1,3-thiazol-4-yl}formamido)-5-{4-[(2-aminoethyl)amino]phenyl}-2,2-dimethylpentanoic Acid]	2.64 nM	0.42 nM	22x	155x	0.45 nM	34x					
CCCCCCN(C(=O)[C@@H](NC(=O)[C@H]1CCCCN1)[C@@H](C)CC)[C@H](C[C@@H](OC(C)=O)c1nc(C(=O)N[C@@H](Cc2ccc(NC(=O)CN)c(F)c2)CC(C)(C)C(=O)O)cs1)C(C)C [Compound P27, (4S)-4-({2-[(1R,3R)-1-(acetyloxy)-3-[(2S,3S)—N-hexyl-3-methyl-2-[(2R)-piperidin-2-ylformamido]pentanamido]-4-methylpentyl]-1,3-thiazol-4-yl}formamido)-5-[4-(2-aminoacetamido)-3-fluorophenyl]-2,2-dimethylpentanoic Acid]	1.48 nM	0.09 nM	3.8x	6.4x	0.11 nM	3.9x					
CCCCCCN(C(=O)[C@@H](NC(=O)[C@H]1CCCCN1C)[C@@H](C)CC)[C@H](C[C@@H](OCC)c1nc(C(=O)N[C@@H](Cc2ccc(NC(=O)CN)c(F)c2)CC(C)(C)C(=O)O)cs1)C(C)C [Compound P26, (4S)-5-[4-(2-aminoacetamido)-3-fluorophenyl]-4-({2-[(1R,3R)-1-ethoxy-3-[(2S,3S)—N-hexyl-3-methyl-2-{[(2R)-1-methylpiperidin-2-yl]formamido}pentanamido]-4-methylpentyl]-1,3-thiazol-4-yl}formamido)-2,2-dimethylpentanoic Acid]	0.25 nM	0.05 nM	2.8x	4.9x	0.05 nM	2.6x					
CCCCCCN(C(=O)[C@@H](NC(=O)[C@H]1CCCCN1C)[C@@H](C)CC)[C@H](C[C@@H](OC(C)=O)c1nc(C(=O)N[C@@H](Cc2ccc(NC(=O)CN)cc2)CC(C)(C)C(=O)O)cs1)C(C)C [Compound P28, (4S)-4-({2-[(1R,3R)-1-(acetyloxy)-3-[(2S,3S)—N-hexyl-3-methyl-2-{[(2R)-1-methylpiperidin-2-yl]formamido}pentanamido]-4-methylpentyl]-1,3-thiazol-4-yl}formamido)-5-[4-(2-aminoacetamido)phenyl]-2,2-dimethylpentanoic Acid]	0.17 nM	0.11 nM	5.8x	6.9x	0.03 nM	2.5x					
CCCCCCN(C(=O)[C@@H](NC(=O)[C@H]1CCCCN1C)[C@@H](C)CC)[C@H](C[C@@H](O)c1nc(C(=O)N[C@@H](Cc2ccc(NC(=O)CN)c(F)c2)CC(C)(C)C(=O)O)cs1)C(C)C [Compound P24, (4S)-5-[4-(2-aminoacetamido)-3-fluorophenyl]-4-({2-[(1R,3R)-3-[(2S,3S)—N-hexyl-3-methyl-2-{[(2R)-1-methylpiperidin-2-yl]formamido}pentanamido]-1-hydroxy-4-methylpentyl]-1,3-thiazol-4-yl}formamido)-2,2-dimethylpentanoic Acid]	15.5 nM	0.82 nM	3.2x	5.2x	0.86 nM	22x					
